{"source": "ChEMBL document CHEMBL6182898", "about": "“Design, synthesis and bioevaluation of novel hydrazide derivatives as enhancers of immunotherapy and DNA-damage response in antitumor therapy” (Eur J Med Chem, 2025)", "key": {"[1]": {"biological_target": "Programmed cell death 1 ligand 1 (Mus musculus) (UniProt Q9EP73)", "sequence (Q9EP73 whole entry)": "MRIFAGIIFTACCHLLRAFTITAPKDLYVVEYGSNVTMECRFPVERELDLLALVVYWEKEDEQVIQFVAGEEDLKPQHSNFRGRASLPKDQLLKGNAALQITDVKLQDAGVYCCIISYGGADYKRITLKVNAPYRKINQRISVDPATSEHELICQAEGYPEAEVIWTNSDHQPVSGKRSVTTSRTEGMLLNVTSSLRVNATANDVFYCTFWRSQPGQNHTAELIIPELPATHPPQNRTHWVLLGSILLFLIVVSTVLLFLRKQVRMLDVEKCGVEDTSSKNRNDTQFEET", "assay": "Induction of PD-L1 degradation in mouse B16-F10 cells at 5 uM incubated for 24 hrs in presence of Bafilomycin A1 by Western blot analysis", "type": "cell-based"}, "[2]": {"assay": "Clast in male Sprague-Dawley rat at 2 mg/kg, iv measured for 0.083 to 12 hrs by LC-MS/MS analysis", "type": "ADME, organism-based", "conditions": "in vivo, time 0.083-12 hrs"}, "[3]": {"assay": "AUMC (0 to infinity) in male Sprague-Dawley rat at 20 mg/kg, po measured for 0.083 to 12 hrs by LC-MS/MS analysis", "type": "ADME, organism-based", "conditions": "in vivo, time 0.083-12 hrs"}, "[4]": {"assay": "Oral bioavailability in male Sprague-Dawley rat at 20 mg/kg measured for 0.083 to 12 hrs by LC-MS/MS analysis", "type": "ADME, organism-based", "conditions": "in vivo, time 0.083-12 hrs"}, "[5]": {"system": "Mus musculus", "assay": "Effect on Ac-alpha-tubulin in mouse B16-F10 cells implanted in male C57BL/6J mouse at 50 mg/kg, IG treated for 14 days consecutively by Western blot analysis", "type": "functional, organism-based", "conditions": "time 14.0 day"}, "[6]": {"system": "4T1", "assay": "Synergistic antitumor activity against mouse 4T1 cells implanted in mouse at 25 mg/kg/day in presence of olaparib relative to control", "type": "functional", "conditions": "read-out: TGI"}}, "note": "The source made the active and inactive calls. The rule behind the calls is not given here."}
{"smiles": "CCCNNC(=O)CCCCCCNC(=O)c1cnc(-c2ccc(NC(=O)OC(C)(C)C)cc2)s1", "values": [{"measurement": "Activity", "setting": "[1]", "value": "inactive"}, {"measurement": "Clast", "setting": "[2]", "value": 0.24, "unit": "µg/L"}, {"measurement": "AUMC", "setting": "[3]", "value": 97.74, "unit": "hr.hr.ug/L"}, {"measurement": "bioavailability", "setting": "[4]", "value": 0.49, "unit": "%"}, {"measurement": "Activity", "setting": "[5]", "value": "No effect"}, {"measurement": "inhibition in vivo at 25 mg/kg/day", "setting": "[6]", "value": 88, "unit": "%"}]}
